Reference: patent US20250382322A1, “DIAGNOSTICS FOR DETECTING ECTO-5'-NUCLEOTIDASE (CD73)” (EBERHARD KARLS UNIVERSITÄT TÜBINGEN, priority 2022, published 2025)

Experiments:
[1] = molecular target: T1, recombinant soluble human CD73 (Homo sapiens, UniProt P21589, T376A); assay: CD73 enzyme inhibition assay with [2,8-3H]AMP, soluble human CD73; type: biochemical; settings: [2,8-3H]AMP (5 μM) as substrate; Ki from IC50 by Cheng-Prusoff; read-out: Human soluble CD73 Ki ± SEM
T1 construct: mature human CD73 (residues 27-549) fused to 6×His-tag at the C-terminus; 6xHis (C); made in house; host or cells: Spodoptera frugiperda Sf9 insect cells (baculovirus, pAcGP67B vector)
T1 sequence (P21589 27-549 T376A): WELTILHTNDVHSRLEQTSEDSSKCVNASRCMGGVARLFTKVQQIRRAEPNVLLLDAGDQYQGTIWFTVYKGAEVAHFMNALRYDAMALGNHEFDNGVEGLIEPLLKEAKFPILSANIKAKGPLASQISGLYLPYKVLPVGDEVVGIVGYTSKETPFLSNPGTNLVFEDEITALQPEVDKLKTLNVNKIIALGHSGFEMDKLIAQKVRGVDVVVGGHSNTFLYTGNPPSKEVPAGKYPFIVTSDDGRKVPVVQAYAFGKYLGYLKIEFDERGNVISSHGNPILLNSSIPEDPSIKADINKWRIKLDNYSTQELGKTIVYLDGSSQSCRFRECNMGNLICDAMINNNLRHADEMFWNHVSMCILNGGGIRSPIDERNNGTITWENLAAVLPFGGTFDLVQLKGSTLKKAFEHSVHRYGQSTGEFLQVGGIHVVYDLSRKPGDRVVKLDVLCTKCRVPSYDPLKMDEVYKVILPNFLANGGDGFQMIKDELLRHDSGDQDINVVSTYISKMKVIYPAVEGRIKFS
Procedure: Compound 2b, its precursor 1, and 20 were investigated for their CD73-inhibitory potency using tritium-labeled AMP as a substrate.^20 After incubation with CD73, non-hydrolyzed substrate and inorganic phosphate were precipitated using a solution of lanthanum chloride, and the precipitate was separated from the solution containing the reaction product [2,8-^3H]adenosine by filtration through GF/B glass fiber filters (WhatmanTM GE Healthcare, Chicago, IL, USA) using a cell harvester (M-48, Brandel, Gaitherburg, MD, USA). The filtrates (ca. 1.8 mL each) were transferred to scintillation vials, scintillation cocktail ULTIMA Gold XR (PerkinElmer, Waltham, MA, USA) was added (5 mL), and the radioactivity esd quantified by scintillation counting. CD73 preparations were (1) recombinant soluble human CD73,^13 (2) recombinant soluble rat CD73,^21 both expressed in Spodoptera frugiperda 9 (Sf) cells, (3) membrane preparations of MDA-MB-231 cells,^16 a human triple-negative breast cancer cell line with high expression of CD73,^18 and (4) membrane preparations of the 4T1.2 cell line, a mouse CD73-expressing breast cancer cell line.^22 The potency of the compounds was determined by measurements of full concentration-inhibition curves. K values were calcuated from the obtained IC50 values employing the Cheng-Prusoff equation.^23
Human soluble CD73 was expressed in Spodoptera frugiperda (Sf9) insect cells and purified as previously described.^16 The cDNA encoding for the mature human CD73 (residues 27-549) fused to 6×His-tag at the C-terminus (Genbank accession no. NM_002526) corresponding to the natural variant T376A (P21589/VAR_022091, UniProtKB/Swiss-Prot) was ligated into the pAcGP67B vector. For transfection, 1 μl of the recombinant vector (1000 ng/μl) mixed with 2.5 μl of baculovirus genomic DNA ProEasy™ (AB vector, CA, USA) was used to transfect Sf9 cells grown in Insect-XPRESS™ medium (#BE12-7300, Lonza, Switzerland) supplemented with 10 mg/l gentamicin. […]

[2] = Determination of log D7.4 (1-octanol/PBS); type: physicochemical
Procedure: (§1) Determination of the log D7.4-value of [^18F]2. The lipophilicity of [^18F]2 was determined following the procedure described by Prante et al.^17 Triazole [^18F]2 (˜400 kBq) in PBS buffer (10 μL, pH 7.4) was added to PBS buffer (590 μL, pH 7.4) and octan-1-ol (600 μL). The two-layer mixture was shaken for 3 min on a vortex mixer at RT and centrifuged (3000 rpm) for 5 min. The main part of the octanol layer (400 μL) was collected carefully and added to a new tube with PBS buffer (400 μL, pH 7.4). The two-layer mixture was shaken again for 10 min and centrifuged for 5 min (3000 rpm). Three samples were prepared and two aliquots (á 100 μL) of both layers were measured in a g-counter 2480 Wizard2 (Perkin-Elmer, Waltham, USA). The partition coefficient was determined by dividing cpm(octanol) by cpm(PBS) and indicated as log D7.4 (exp.).
as §1, with “D7,4-value” for “D7.4-value”, “[^18F]PSB-19427.” for “[^18F]2.”, “[^18F]PSB-19427” for “[^18F]2”, “al.^28” for “al.^17”

[3] = test system: s.c. MDA-MB-231 xenografts; assay: In vivo PET imaging in MDA-MB-231 tumor bearing mice; design: species or system NSG mice
Procedure: (§2) Animal models. All animal experiments were performed in accordance with the legal requirements of the European Community (Directive 2010/63/EU) and the corresponding German Animal Welfare Law (TierSchG, TierSchVersV) and were approved by the local authorizing agency (State Office for Nature, Environment and Consumer Protection North Rhine-Westphalia). MDA-MB-231 or AsPC-1 cells were cultivated in RPMI supplemented with 10% fetal calf serum and 100 U/mL penicillin and 100 μg/mL streptomycin. 5×10^6 MDA-MB-231 or AsPC-1 cells were injected subcutaneously into the shoulder region of 10 to 12 week old NSG mice (NOD.Cg-Prkdcscidll2rgtm1Wjl/SzJ, Charles River Laboratories). Two tumors were inoculated per animal and growth was followed by digital caliper measurements (volume=½ (length*width^2)).
In vivo Imaging. Adult C57bl/6 (biodistribution study, 21±1 g) or tumor bearing NSG mice (24±3 g) were anesthetized by isoflurane/O2 and one lateral tail vein was cannulated using a 27 G needle connected to 15 cm polyethylene catheter tubing. ^18F-PSB-19427 (˜450 kBq/g body weight) were injected as a bolus (50 μL compound flushed with 50 μL saline) via the tail vein and subsequent PET scanning was performed. In the blocking studies, a subgroup of tumor-bearing mice was injected with ˜1000 fold excess of unlabeled PSB-19427 10 minutes prior to radiotracer injection. […] Three-dimensional volumes of interest (VOIs) were defined over the respective organs in CT data sets, transferred to the coregistered PET data, and analyzed quantitatively. Regional uptake was calculated as a percentage of injected dose by dividing counts per milliliter in the VOI by total counts in the mouse multiplied by 100 (% ID/mL).
(§3) Ex vivo gamma counter measurements. […] Ex vivo biodistribution of radioactivity was analyzed by scintillation counting (Wizard2 gamma counter, Perkin-Elmer Life Science) and the radioactivity in respective organs decay-corrected and calculated as % ID per gram tissue (% ID/g).

s.c. AsPC-1 xenografts = assay: In vivo PET imaging in AsPC-1 tumor bearing mice; design: species or system NSG mice
Procedure: as §2, with “Two tumors were inoculated per animal and growth was followed by digital caliper measurements (volume=½ (length*width^2)).” left out
In vivo Imaging. […] Three-dimensional volumes of interest (VOIs) were defined over the respective organs in CT data sets, transferred to the coregistered PET data, and analyzed quantitatively. Regional uptake was calculated as a percentage of injected dose by dividing counts per milliliter in the VOI by total counts in the mouse multiplied by 100 (% ID/mL).
as §3

Structure (SMILES)	Ki [1] [pM]	factor of increase of measured solubility in PBS-buffer (1-octanol/PBS) versus clog P ([2]; compared to clog P 0.22)	factor of increase of measured solubility in PBS-buffer (1-octanol/PBS) versus clog P ([2]; compared to clog P 0.47)	logD ([2]; octan-1-ol/PBS buffer, 1-octanol/PBS pH 7.4)	change of tumor-to-muscle ratios in blocking study ([3]; MDA-MB-231, pretreating with unlabeled compound 2 10 min before tracer injection)	accumulation in the tumor as compared to FDG ([3]; MDA-MB-231 tumors, 90 min and 4 h, especially in relation to muscle uptake)	accumulation of the tracer in the tumor xenografts as compared to muscle tissue ([3]; PET 4 h p.i., i.v., MDA-MB-231 xenografts)	change of tumor-to-muscle ratios in blocking study (s.c. AsPC-1 xenografts; AsPC-1, pretreating with PSB-12651 (7) 10 min before tracer injection)	accumulation of the tracer in the tumor xenografts as compared to muscle tissue (s.c. AsPC-1 xenografts; PET 4 h p.i., i.v., AsPC-1 xenografts)
C#Cc1ccc(CN(CCC)c2nc(Cl)nc3c2ncn3[C@@H]2O[C@H](COP(=O)(O)CP(=O)(O)O)C(O)C2O)cc1 (stereo partly drawn) [Compound 1]	372 ± 30	–	–	–	–	–	–	–	–
CCCN(Cc1ccc(-c2cn(CC[18F])nn2)cc1)c1nc(Cl)nc2c1ncn2C1O[C@H](COP(=O)(O)CP(=O)(O)O)C(O)C1O (stereo partly drawn) [[^18F]2, [^18F]-[((2R,3S,4R,5R)-5-{2-chloro-6-[(4-{1-[2-(fluoro)ethyl]-1H-1,2,3-triazol-4-yl}benzyl)(propyl)amino]-9H-purin-9-yl}-3,4-dihydroxytetrahydrofuran-2-yl)methoxy]methylenebisphosphonic acid]	–	2.2	3.9	-0.12 ± 0.03	significant decrease of tumor-to-muscle ratios	higher accumulation	pronounced accumulation	significant decrease of tumor-to-muscle ratios	pronounced accumulation
